The source of these data is article PMC4632086, “Effects and possible mechanisms of action of acacetin on the behavior and eye morphology of Drosophila models of Alzheimer’s disease” (Scientific Reports, 2015).

One assay concerns human BACE-1. The conditions noted are these: cited from earlier work.
The subject of assay [1] is transgenic Drosophila AD models. The arrangement: method as in PMID 22348084. The conditions noted are these: five different transgenic Drosophila AD models; cited from earlier work.
A further assay concerns the target T1, recombinant human BACE-1 (Homo sapiens, UniProt P56817).
T1 construct: purchased R&D Systems (Minneapolis, MN, USA)
The experiment in a line: FRET-based enzyme assay, BACE-1 inhibition. In kind it is biochemical. The conditions noted are these: for IC50: pH 4.5, 1 h at 25 °C; for Slope ± SE: slope of concentration-inhibition fit.

Where two headings read alike, the source gives them in different places.

T1 sequence (P56817 46-501): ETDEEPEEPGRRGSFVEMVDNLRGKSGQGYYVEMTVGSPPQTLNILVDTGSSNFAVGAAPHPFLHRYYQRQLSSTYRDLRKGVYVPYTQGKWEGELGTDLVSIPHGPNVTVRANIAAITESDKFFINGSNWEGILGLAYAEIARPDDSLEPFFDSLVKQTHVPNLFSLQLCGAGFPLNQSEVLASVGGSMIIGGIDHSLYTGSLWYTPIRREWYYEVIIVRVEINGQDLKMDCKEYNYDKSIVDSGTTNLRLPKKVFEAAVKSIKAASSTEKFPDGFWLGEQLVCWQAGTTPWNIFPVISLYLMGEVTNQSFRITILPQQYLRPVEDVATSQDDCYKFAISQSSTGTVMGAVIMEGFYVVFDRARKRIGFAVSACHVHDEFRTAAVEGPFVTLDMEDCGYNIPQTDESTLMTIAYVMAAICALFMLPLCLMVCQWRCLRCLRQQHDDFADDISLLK

The IC50 is the concentration needed to halve the response being measured. As to `COc1cc2c(cc1O)CC[n+]1cc3c4c(ccc3cc1-2)OCO4` [groenlandicine], the IC50 in the assay with human BACE-1 (alkaloids) is 19.7 µM. Consider `O=C1O[C@H]2[C@@H]3OC(=O)c4cc(O)c(O)c(O)c4-c4c(cc(O)c(O)c4O)C(=O)OC[C@H]2O[C@@H](OC(=O)c2cc(O)c(O)c(O)c2)[C@@H]3OC(=O)c2cc(O)c(O)c3c2[C@@H]2C1=CC(=O)[C@](O)(O3)C2(O)O` [geraniin], for which the IC50 in the assay on human BACE-1 (tannins) is 4 µM.

Regarding `O=C(O[C@@H]1O[C@@H]2COC(=O)c3cc(O)c(O)c(O)c3-c3c(cc(O)c(O)c3O)C(=O)O[C@H]([C@H]1O)[C@@H]2O)c1cc(O)c(O)c(O)c1` [corilagin], the IC50 with human BACE-1 (tannins) was 34 µM. With `C/C=C/c1cc(=O)c2c(C)cc(OC)c([C@@H]3O[C@H](CO)[C@@H](O)[C@H](O)[C@H]3O)c2o1` [C-2′-decoumaroyl-aloeresin G], the half-inhibitory concentration (IC50) in the assay on human BACE-1 (benzopyranoids) was 20.5 µM. As to `COc1cc2c(cc1OC)-c1cc3ccc4c(c3c[n+]1CC2)OCO4` [epiberberi], the IC50 in the assay with human BACE-1 (alkaloids) was 8.55 µM. With `COc1cc(/C=C/C(=O)CC(=O)/C=C/c2ccc(O)c(OC)c2)ccc1O` [curcumin], the improved lifespan result in assay [1] is “up to 75%”. In the case of `O=C(O)/C=C/c1ccc(O)cc1` [p-coumaric acid], the half-maximal inhibitory concentration (IC50) in the assay on human BACE-1 (phenylpropanoids) was 90 µM. As to `COc1cc(C)c2c(=O)cc(C[C@@H](C)O)oc2c1[C@@H]1O[C@H](CO)[C@@H](O)[C@H](O)[C@H]1OC(=O)/C=C/c1ccc(O)cc1` [aloeresin D], the 50% inhibitory concentration (IC50) in the assay on human BACE-1 (benzopyranoids) is 39 µM. On to `C=C[C@@](C)(/C=C/c1ccc(O)cc1)CCC=C(C)C` [bakuchiol], for which the IC50 in the assay with human BACE-1 is 21.4 µM. With `COc1ccc(-c2cc(=O)c3c(O)cc(O)cc3o2)cc1` [Pure acacetin, acacetin], on recombinant human BACE-1 (read-out: IC50, μM (95% CL)), the IC50 is 81.2 µM. For the same compound, the “Slope ± SE” value on recombinant human BACE-1 is reported as 0.4 ± 0.03. With `CC1(C)CC[C@]2(C(=O)O)CC[C@]3(C)C(=CC[C@@H]4[C@@]5(C)C[C@@H](O)[C@H](O)C(C)(C)[C@@H]5CC[C@]43C)[C@@H]2C1` [Maslinic acid, maslinic acid], on recombinant human BACE-1 (IC50, μM (95% CL)), the IC50 worked out at 488 µM. In addition, at recombinant human BACE-1, the “Slope ± SE” value stood at 1.4 ± 0.09. On to `CC1(C)CC[C@]2(C(=O)O)CC[C@]3(C)C(=CC[C@@H]4[C@@]5(C)CC[C@H](O)C(C)(C)[C@@H]5CC[C@]43C)[C@@H]2C1` [Oleanolic acid, oleanolic acid], for which, on recombinant human BACE-1 (read-out: IC50, μM (95% CL)), the concentration for half-maximal inhibition (IC50) came out at 355 µM.
